# In article PMC10599993, “The PTPN2/PTPN1 inhibitor ABBV-CLS-484 unleashes potent anti-tumour immunity” (Nature, 2023):
# How the values were obtained:
# Assay in all cases: biochemical
# [1] = molecular target: T1, MT2 (ML1B) (Homo sapiens, UniProt P49286); parameters: Safety pharmacology off-target panel at Eurofins, radioligand binding with agonist or antagonist radioligand (Supplementary Table 2); conditions: agonist radioligand
# T1 construct: gene MTNR1B; ML1B
# Protocol: (§1) Wide-range phosphatase, kinase and preclinical safety pharmacology off-target activity screens were conducted at Eurofins (Extended Data Table 5 and Supplementary Tables 1 and 2). A small phosphatase panel was developed at AbbVie to assess IC50 values on select phosphatases. The following enzymes used in the phosphatase selectivity panel were purchased from Eurofins: PTPN1 (PTP1B; 14–621), PTPN2 (TC-PTP; 14–646), PTPN9 (14–592), SHP1 (14–591) and SHP2 (14–622). The catalytic activity of the phosphatase was monitored using the small-molecule substrate DiFMUP (ThermoFisher) in a fluorescence assay format. In brief, the phosphatase reactions were performed at room temperature in the following assay buffer: 50 mM HEPES, pH 7.2, 100 mM NaCl, 1 mM EDTA, 0.005% Tween-20 and 5 mM TCEP. Each phosphatase was incubated with increasing concentrations of AC484 for 5 min, after which the substrate DiFMUP was added and incubated at 25 °C for 30 min. The final concentration of the enzyme and substrate was maintained at 0.5 nM and 5 μM, respectively, in all the assays. The reaction was then quenched by the addition of a 100 μM solution of bpV(Phen) (Enzo Life Sciences). The fluorescence signal was monitored using an Envision microplate reader (Perkin-Elmer) using excitation and emission wavelengths of 340 nm and 450 nm, respectively. The dose–response curves for the inhibitors were analysed using normalized IC50 regression curve fitting with control-based normalization. Supplementary file 41586_2023_6575_MOESM4_ESM.xlsx: Supplementary Table 2 AC484 receptor selectivity screen.
# [2] = molecular target: T2, 5-HT2B (Homo sapiens, UniProt P41595); parameters: Safety pharmacology off-target panel at Eurofins, radioligand binding with agonist or antagonist radioligand (Supplementary Table 2); conditions: agonist radioligand
# T2 construct: gene HTR2B
# Protocol: as §1
# [3] = molecular target: T3, M2 (Homo sapiens, UniProt P08172); parameters: Safety pharmacology off-target panel at Eurofins, radioligand binding with agonist or antagonist radioligand (Supplementary Table 2); conditions: antagonist radioligand
# T3 construct: gene CHRM2
# Protocol: as §1
# [4] = molecular target: T4, B2 (Homo sapiens, UniProt P30411); parameters: Safety pharmacology off-target panel at Eurofins, radioligand binding with agonist or antagonist radioligand (Supplementary Table 2); conditions: agonist radioligand
# T4 construct: gene BDKRB2
# Protocol: as §1
# [5] = molecular target: T5, M1 (Homo sapiens, UniProt P11229); parameters: Safety pharmacology off-target panel at Eurofins, radioligand binding with agonist or antagonist radioligand (Supplementary Table 2); conditions: antagonist radioligand
# T5 construct: gene CHRM1
# Protocol: as §1
# [6] = molecular target: T6, d (DOP) (Homo sapiens, UniProt P41143); parameters: Safety pharmacology off-target panel at Eurofins, radioligand binding with agonist or antagonist radioligand (Supplementary Table 2); conditions: agonist radioligand
# T6 construct: gene OPRD1; DOP
# Protocol: as §1
# [7] = molecular target: T7, Dopamine transporter (Homo sapiens, UniProt Q01959); parameters: Safety pharmacology off-target panel at Eurofins, radioligand binding with agonist or antagonist radioligand (Supplementary Table 2); conditions: antagonist radioligand
# T7 construct: gene SLC6A3
# Protocol: as §1
# [8] = molecular target: T8, a2B (h) (Homo sapiens, UniProt P18089); parameters: Safety pharmacology off-target panel at Eurofins, radioligand binding with agonist or antagonist radioligand (Supplementary Table 2); conditions: antagonist radioligand
# T8 construct: gene ADRA2B
# T8 sequence (P18089 whole entry): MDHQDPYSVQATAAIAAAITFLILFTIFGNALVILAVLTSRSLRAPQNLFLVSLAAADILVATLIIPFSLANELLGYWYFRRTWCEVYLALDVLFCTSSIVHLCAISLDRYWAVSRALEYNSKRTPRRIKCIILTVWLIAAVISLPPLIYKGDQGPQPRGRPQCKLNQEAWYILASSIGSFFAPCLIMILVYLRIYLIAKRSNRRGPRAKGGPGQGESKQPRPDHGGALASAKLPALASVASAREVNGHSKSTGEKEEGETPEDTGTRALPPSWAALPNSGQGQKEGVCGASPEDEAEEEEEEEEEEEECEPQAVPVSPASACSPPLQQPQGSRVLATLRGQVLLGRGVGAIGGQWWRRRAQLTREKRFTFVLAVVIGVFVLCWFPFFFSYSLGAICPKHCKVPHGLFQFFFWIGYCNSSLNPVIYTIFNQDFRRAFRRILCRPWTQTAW
# Protocol: as §1
# [9] = molecular target: T9, CB1 (Homo sapiens, UniProt P21554); parameters: Safety pharmacology off-target panel at Eurofins, radioligand binding with agonist or antagonist radioligand (Supplementary Table 2); conditions: agonist radioligand
# T9 construct: gene CNR1
# T9 sequence (P21554 whole entry): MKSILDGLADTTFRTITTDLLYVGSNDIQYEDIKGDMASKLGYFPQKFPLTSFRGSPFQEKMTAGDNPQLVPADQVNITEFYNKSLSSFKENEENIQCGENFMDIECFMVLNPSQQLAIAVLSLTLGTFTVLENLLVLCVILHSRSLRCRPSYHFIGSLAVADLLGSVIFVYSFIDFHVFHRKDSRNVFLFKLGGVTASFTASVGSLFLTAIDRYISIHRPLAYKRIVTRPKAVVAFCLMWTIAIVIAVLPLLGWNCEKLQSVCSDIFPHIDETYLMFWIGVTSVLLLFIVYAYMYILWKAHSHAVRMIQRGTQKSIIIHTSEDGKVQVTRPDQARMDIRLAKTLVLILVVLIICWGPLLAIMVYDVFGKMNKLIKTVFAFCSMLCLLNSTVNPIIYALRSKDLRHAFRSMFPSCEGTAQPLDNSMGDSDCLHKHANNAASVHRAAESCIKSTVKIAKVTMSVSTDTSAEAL
# Protocol: as §1
# [10] = molecular target: T10, ETB (Homo sapiens, UniProt P24530); parameters: Safety pharmacology off-target panel at Eurofins, radioligand binding with agonist or antagonist radioligand (Supplementary Table 2); conditions: agonist radioligand
# T10 construct: gene EDNRB
# T10 sequence (P24530 whole entry): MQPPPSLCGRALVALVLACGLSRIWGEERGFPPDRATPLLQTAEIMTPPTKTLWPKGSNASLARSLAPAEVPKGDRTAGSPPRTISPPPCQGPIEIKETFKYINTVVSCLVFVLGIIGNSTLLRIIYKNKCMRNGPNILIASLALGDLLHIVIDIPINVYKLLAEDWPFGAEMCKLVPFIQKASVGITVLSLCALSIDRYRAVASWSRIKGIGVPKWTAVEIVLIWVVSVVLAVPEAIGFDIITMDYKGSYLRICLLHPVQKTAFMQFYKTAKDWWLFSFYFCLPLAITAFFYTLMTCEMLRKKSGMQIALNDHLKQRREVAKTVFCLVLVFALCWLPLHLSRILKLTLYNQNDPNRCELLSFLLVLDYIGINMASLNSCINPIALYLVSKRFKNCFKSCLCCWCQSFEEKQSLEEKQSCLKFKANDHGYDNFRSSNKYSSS
# Protocol: as §1
# [11] = molecular target: T11, AT2 (h) (Homo sapiens, UniProt P50052); parameters: Safety pharmacology off-target panel at Eurofins, radioligand binding with agonist or antagonist radioligand (Supplementary Table 2); conditions: agonist radioligand
# T11 construct: gene AGTR2
# Protocol: as §1
# [12] = molecular target: T12, Estrogen ER alpha (Homo sapiens, UniProt P03372); parameters: Safety pharmacology off-target panel at Eurofins, radioligand binding with agonist or antagonist radioligand (Supplementary Table 2); conditions: agonist radioligand
# T12 construct: gene ESR1
# Protocol: as §1
# [13] = molecular target: T13, ETA (Homo sapiens, UniProt P25101); parameters: Safety pharmacology off-target panel at Eurofins, radioligand binding with agonist or antagonist radioligand (Supplementary Table 2); conditions: agonist radioligand
# T13 construct: gene EDNRA
# Protocol: as §1
# [14] = molecular target: T14, M3 (Homo sapiens, UniProt P20309); parameters: Safety pharmacology off-target panel at Eurofins, radioligand binding with agonist or antagonist radioligand (Supplementary Table 2); conditions: antagonist radioligand
# T14 construct: gene CHRM3
# T14 sequence (P20309 whole entry): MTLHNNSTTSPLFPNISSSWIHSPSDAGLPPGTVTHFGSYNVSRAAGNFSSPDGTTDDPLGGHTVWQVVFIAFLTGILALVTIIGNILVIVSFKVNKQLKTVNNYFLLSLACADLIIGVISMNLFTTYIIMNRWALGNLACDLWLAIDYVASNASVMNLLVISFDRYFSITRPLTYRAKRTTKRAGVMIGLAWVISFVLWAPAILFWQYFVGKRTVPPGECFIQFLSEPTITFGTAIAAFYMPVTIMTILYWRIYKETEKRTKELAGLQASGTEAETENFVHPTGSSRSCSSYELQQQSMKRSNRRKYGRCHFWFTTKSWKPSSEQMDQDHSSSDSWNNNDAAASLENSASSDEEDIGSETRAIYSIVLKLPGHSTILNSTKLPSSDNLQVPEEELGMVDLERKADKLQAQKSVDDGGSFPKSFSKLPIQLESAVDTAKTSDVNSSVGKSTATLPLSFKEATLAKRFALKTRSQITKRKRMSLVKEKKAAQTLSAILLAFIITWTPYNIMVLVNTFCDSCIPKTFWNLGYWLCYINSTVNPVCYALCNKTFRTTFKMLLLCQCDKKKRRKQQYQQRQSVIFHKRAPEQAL
# Protocol: as §1
# [15] = molecular target: T15, 5-HT7 (Homo sapiens, UniProt P34969); parameters: Safety pharmacology off-target panel at Eurofins, radioligand binding with agonist or antagonist radioligand (Supplementary Table 2); conditions: agonist radioligand
# T15 construct: gene HTR7
# T15 sequence (P34969 whole entry): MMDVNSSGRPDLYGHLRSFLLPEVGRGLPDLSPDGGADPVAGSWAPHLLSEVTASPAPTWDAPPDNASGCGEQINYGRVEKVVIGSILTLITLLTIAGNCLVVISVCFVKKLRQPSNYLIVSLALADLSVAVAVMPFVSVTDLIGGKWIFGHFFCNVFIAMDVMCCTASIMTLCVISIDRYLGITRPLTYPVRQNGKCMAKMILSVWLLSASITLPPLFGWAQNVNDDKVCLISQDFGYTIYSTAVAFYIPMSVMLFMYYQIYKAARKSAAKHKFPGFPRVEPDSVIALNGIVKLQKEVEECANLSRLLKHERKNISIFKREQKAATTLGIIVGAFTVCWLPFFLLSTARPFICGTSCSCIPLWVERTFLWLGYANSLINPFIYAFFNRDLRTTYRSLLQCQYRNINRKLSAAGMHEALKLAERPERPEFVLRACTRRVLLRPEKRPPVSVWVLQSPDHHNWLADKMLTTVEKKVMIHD
# Protocol: as §1
# [16] = molecular target: T16, VPAC1 (VIP1) (Homo sapiens, UniProt P32241); parameters: Safety pharmacology off-target panel at Eurofins, radioligand binding with agonist or antagonist radioligand (Supplementary Table 2); conditions: agonist radioligand
# T16 construct: gene VIPR1
# T16 sequence (P32241 whole entry): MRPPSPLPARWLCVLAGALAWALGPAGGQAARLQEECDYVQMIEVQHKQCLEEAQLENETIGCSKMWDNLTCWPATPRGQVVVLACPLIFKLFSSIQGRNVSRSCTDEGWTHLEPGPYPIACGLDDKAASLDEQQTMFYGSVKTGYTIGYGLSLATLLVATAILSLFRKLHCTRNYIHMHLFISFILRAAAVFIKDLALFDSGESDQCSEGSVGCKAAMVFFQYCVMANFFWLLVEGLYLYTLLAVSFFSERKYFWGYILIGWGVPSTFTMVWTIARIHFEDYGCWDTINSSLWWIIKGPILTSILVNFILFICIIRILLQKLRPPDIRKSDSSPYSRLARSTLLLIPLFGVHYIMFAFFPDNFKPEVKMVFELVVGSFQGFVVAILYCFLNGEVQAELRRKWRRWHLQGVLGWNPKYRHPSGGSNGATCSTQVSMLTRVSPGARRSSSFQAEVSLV
# Protocol: as §1
# [17] = molecular target: RET (Homo sapiens, UniProt P07949); parameters: Kinase selectivity panel, IC50 of AC484 (Supplementary Table 1)
# Sequence of RET (P07949 whole entry): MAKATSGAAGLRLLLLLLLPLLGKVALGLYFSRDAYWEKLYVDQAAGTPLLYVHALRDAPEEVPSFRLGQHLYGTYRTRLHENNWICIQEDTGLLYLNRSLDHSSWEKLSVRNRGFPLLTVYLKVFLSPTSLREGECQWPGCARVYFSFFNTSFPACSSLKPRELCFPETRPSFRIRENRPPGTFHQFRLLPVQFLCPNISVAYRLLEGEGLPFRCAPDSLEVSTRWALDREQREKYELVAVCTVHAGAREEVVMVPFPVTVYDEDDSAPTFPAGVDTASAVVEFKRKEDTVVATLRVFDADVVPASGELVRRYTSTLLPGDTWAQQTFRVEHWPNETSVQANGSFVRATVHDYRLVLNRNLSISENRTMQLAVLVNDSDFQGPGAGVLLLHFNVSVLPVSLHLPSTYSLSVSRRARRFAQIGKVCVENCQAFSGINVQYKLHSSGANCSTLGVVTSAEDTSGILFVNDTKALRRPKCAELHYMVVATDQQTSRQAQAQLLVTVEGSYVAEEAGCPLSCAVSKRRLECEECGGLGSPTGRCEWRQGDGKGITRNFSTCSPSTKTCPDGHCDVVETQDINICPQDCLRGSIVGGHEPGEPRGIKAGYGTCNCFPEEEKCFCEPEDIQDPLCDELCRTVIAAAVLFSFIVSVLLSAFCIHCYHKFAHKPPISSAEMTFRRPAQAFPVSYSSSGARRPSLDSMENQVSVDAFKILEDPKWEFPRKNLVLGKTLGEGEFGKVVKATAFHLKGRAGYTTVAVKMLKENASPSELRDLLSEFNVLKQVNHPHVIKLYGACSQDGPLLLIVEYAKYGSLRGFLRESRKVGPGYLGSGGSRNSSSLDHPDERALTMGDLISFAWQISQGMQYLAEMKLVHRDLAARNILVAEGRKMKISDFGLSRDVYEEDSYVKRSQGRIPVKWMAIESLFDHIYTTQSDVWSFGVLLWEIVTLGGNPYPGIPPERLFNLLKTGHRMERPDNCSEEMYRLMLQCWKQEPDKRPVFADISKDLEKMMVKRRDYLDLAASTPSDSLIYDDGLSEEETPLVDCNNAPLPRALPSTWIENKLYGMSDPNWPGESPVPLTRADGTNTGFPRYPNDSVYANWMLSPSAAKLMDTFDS
# [18] = molecular target: T17, Aurora 2 (Homo sapiens, UniProt O14965); parameters: Kinase selectivity panel, IC50 of AC484 (Supplementary Table 1)
# T17 construct: gene AURKA
# [19] = molecular target: T18, Erk2 (Homo sapiens, UniProt P28482); parameters: Kinase selectivity panel, IC50 of AC484 (Supplementary Table 1)
# T18 construct: gene MAPK1
# T18 sequence (P28482 whole entry): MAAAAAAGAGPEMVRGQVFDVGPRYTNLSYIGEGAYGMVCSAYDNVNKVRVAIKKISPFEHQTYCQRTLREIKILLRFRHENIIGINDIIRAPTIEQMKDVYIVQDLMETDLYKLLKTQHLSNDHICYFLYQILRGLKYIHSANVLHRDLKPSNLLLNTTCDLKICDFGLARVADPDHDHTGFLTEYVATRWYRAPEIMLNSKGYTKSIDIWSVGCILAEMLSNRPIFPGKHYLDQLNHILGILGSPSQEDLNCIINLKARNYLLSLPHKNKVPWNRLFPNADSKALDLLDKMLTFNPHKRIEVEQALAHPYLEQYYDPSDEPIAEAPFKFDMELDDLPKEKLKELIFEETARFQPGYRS
# T1 sequence (P49286 whole entry): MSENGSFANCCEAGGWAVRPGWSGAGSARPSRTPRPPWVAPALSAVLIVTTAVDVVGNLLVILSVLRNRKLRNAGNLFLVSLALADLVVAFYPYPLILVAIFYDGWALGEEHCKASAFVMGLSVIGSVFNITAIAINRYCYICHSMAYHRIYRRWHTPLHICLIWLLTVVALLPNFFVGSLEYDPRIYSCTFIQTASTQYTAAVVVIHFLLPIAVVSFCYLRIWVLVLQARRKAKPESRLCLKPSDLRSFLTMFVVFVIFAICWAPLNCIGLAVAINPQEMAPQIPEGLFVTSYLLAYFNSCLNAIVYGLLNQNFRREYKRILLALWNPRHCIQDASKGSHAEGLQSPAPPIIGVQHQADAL
smiles,measurement,setting,value
"CC(C)CCN[C@@H]1CCc2cc(O)c(N3CC(=O)NS3(=O)=O)c(F)c2C1 [AC484, ABBV-CLS-484]",AC50,[1],> 0.01 mM
same,AC50,[2],> 0.01 mM
same,AC50,[3],> 0.01 mM
same,AC50,[4],> 0.01 mM
same,AC50,[5],> 0.01 mM
same,AC50,[6],> 0.01 mM
same,AC50,[7],> 0.01 mM
same,AC50,[8],> 0.01 mM
same,AC50,[9],> 0.01 mM
same,AC50,[10],> 0.01 mM
same,AC50,[11],> 0.01 mM
same,AC50,[12],> 0.01 mM
same,AC50,[13],> 0.01 mM
same,AC50,[14],> 0.01 mM
same,AC50,[15],> 0.01 mM
same,AC50,[16],> 0.01 mM
same,IC50,[17],> 10 µM
same,IC50,[18],> 10 µM
same,IC50,[19],> 10 µM
